Source: paper PMC8236452, “Pharmacokinetics and safety of rucaparib in patients with advanced solid tumors and hepatic impairment” (Cancer Chemotherapy and Pharmacology, 2021)

Experiments:
[1] = cited from earlier work
[2] = test system: patients with advanced solid tumors; assay: Safety and tolerability (TEAEs) after a single oral dose of rucaparib 600 mg; type: in vivo, human; conditions: for TEAE: Abdominal pain / TEAE: Cholangitis / TEAE: Hyperbilirubinemia / TEAE: Hypokalemia: Grade 3 event; for TEAE: Multiple organ dysfunction syndrome: Grade 5 event
Method: Safety and tolerability assessments comprised adverse events, clinical laboratory parameters, vital signs, 12-lead ECG, physical examination, and ECOG PS. For part 1 of this study, symptom-associated physical examination and safety laboratory tests, including clinical chemistry, hematology, coagulation, and urinalysis, were performed on day 7 after administration of the first dose of the study medication; 12-lead ECGs were performed 2 and 4 h postdose. All safety assessments were performed at the end of the treatment visit. Treatment-emergent adverse events (TEAEs) were defined as adverse events with an onset date on or after the date of first dose of study treatment until 28 days after the last dose. Causality of treatment-emergent adverse events was evaluated by investigators based on clinical and scientific data for rucaparib, including previously observed and known reactions, temporal relationship of event to rucaparib administration, patient response on […] rechallenge with the drug, medical history and ongoing concomitant conditions, natural course of the disease, potential effects of concomitant medications and interactions with the study drug, and biological plausibility of the event based on mechanism of action of rucaparib.

[3] = estimated with 36% absolute oral bioavailability
[4] = Moderate hepatic impairment (NCI-ODWG, n = 8)
[5] = Normal hepatic function (NCI-ODWG, n = 8)

CNCc1ccc(-c2[nH]c3cc(F)cc4c3c2CCNC4=O)cc1 [rucaparib]
hepatic elimination route, share of total clearance [1, 3]: ~ 70%
renal elimination route, share of total clearance [1, 3]: ~ 30%
mean terminal half-life (t1/2) ([1]; single oral dose of [14C]-rucaparib 600 mg): 25.9 h
TEAE: Anemia [2, 4]: 1 (12.5) n (%)
TEAE: Ascites [2, 4]: 1 (12.5) n (%)
TEAE: Body temperature increased [2, 4]: 1 (12.5) n (%)
TEAE: Conjunctival hemorrhage [2, 4]: 1 (12.5) n (%)
TEAE: Decreased appetite [2, 4]: 0 n (%)
TEAE: Nausea [2, 4]: 0 n (%)
TEAE: Pyrexia [2, 4]: 1 (12.5) n (%)
TEAE: Renal failure [2, 4]: 1 (12.5) n (%)
TEAE: Thrombocytopenia [2, 4]: 1 (12.5) n (%)
TEAE: Urinary tract infection [2, 4]: 1 (12.5) n (%)
TEAEs: Patients with any event [2, 4]: 6 (75.0) n (%)
TEAE: Abdominal pain [2, 4]: 1 (12.5) n (%)
TEAE: Cholangitis [2, 4]: 1 (12.5) n (%)
TEAE: Hyperbilirubinemia [2, 4]: 1 (12.5) n (%)
TEAE: Hypokalemia [2, 4]: 1 (12.5) n (%)
TEAE: Multiple organ dysfunction syndrome [2, 4]: 1 (12.5) n (%)
TEAE: Anemia [2, 5]: 0 n (%)
TEAE: Ascites [2, 5]: 0 n (%)
TEAE: Body temperature increased [2, 5]: 0 n (%)
TEAE: Conjunctival hemorrhage [2, 5]: 0 n (%)
TEAE: Decreased appetite [2, 5]: 1 (12.5) n (%)
TEAE: Nausea [2, 5]: 1 (12.5) n (%)
TEAE: Pyrexia [2, 5]: 0 n (%)
TEAE: Renal failure [2, 5]: 0 n (%)
TEAE: Thrombocytopenia [2, 5]: 0 n (%)
TEAE: Urinary tract infection [2, 5]: 0 n (%)
TEAEs: Patients with any event [2, 5]: 2 (25.0) n (%)
TEAE: Abdominal pain [2, 5]: 0 n (%)
TEAE: Cholangitis [2, 5]: 0 n (%)
TEAE: Hyperbilirubinemia [2, 5]: 0 n (%)
TEAE: Hypokalemia [2, 5]: 0 n (%)
TEAE: Multiple organ dysfunction syndrome [2, 5]: 0 n (%)
TEAE: Anemia ([2]; Overall (N = 16)): 1 (6.3) n (%)
TEAE: Ascites ([2]; Overall (N = 16)): 1 (6.3) n (%)
TEAE: Body temperature increased ([2]; Overall (N = 16)): 1 (6.3) n (%)
TEAE: Conjunctival hemorrhage ([2]; Overall (N = 16)): 1 (6.3) n (%)
TEAE: Decreased appetite ([2]; Overall (N = 16)): 1 (6.3) n (%)
TEAE: Nausea ([2]; Overall (N = 16)): 1 (6.3) n (%)
TEAE: Pyrexia ([2]; Overall (N = 16)): 1 (6.3) n (%)
TEAE: Renal failure ([2]; Overall (N = 16)): 1 (6.3) n (%)
TEAE: Thrombocytopenia ([2]; Overall (N = 16)): 1 (6.3) n (%)
TEAE: Urinary tract infection ([2]; Overall (N = 16)): 1 (6.3) n (%)
TEAEs: Patients with any event ([2]; Overall (N = 16)): 8 (50.0) n (%)
TEAE: Abdominal pain ([2]; Overall (N = 16)): 1 (6.3) n (%)
TEAE: Cholangitis ([2]; Overall (N = 16)): 1 (6.3) n (%)
TEAE: Hyperbilirubinemia ([2]; Overall (N = 16)): 1 (6.3) n (%)
TEAE: Hypokalemia ([2]; Overall (N = 16)): 1 (6.3) n (%)
TEAE: Multiple organ dysfunction syndrome ([2]; Overall (N = 16)): 1 (6.3) n (%)
Patients who withdrew from the study due to a TEAE ([2]; after completion of PK assessment in Part 1, both in the moderate hepatic impairment group): two
Patients who experienced at least 1 TEAE ([2]; all 16 patients): 50%
System Organ Class TEAEs: gastrointestinal disorders ([2]; all 16 patients, abdominal pain, ascites, nausea): 18.8%
Patients with at least 1 TEAE of grade 3 or higher ([2]; all in the moderate hepatic impairment group): Four
TEAEs considered treatment related ([2]; grade 1 anemia and grade 1 thrombocytopenia, one patient, moderate hepatic impairment group): 2 TEAEs
Patients who experienced at least 1 TEAE ([2]; moderate hepatic impairment group): 75.0%
Patients who experienced at least 1 TEAE ([2]; normal hepatic function group): 25.0%
Trends in clinical laboratory parameters, vital signs, ECG, physical examinations ([2]; single oral rucaparib 600 mg): no clinically relevant treatment-related trends observed
